# Counter-ions that a name gives are not always drawn.
# System: peripheral calcium uptake, e.g. in blood vessels and the heart
# Test: not given
# Conditions: well known calcium antagonists; cited from earlier work
row,Compound,activity against peripheral calcium uptake
1,COc1ccc([C@@H]2Sc3ccccc3N(CCN(C)C)C(=O)[C@@H]2OC(C)=O)cc1 [Diltiazem],have activity against peripheral calcium uptake
2,COC(=O)C1=C(C)NC(C)=C(C(=O)OC)C1c1ccccc1[N+](=O)[O-] [Nifedipine],have activity against peripheral calcium uptake
3,COc1ccc(CCN(C)CCCC(C#N)(c2ccc(OC)c(OC)c2)C(C)C)cc1OC (centres unmarked) [Verapamil],have activity against peripheral calcium uptake

# System: voltage operated calcium channels
# Test: Inhibition of depolarization-stimulated 45Ca uptake into brain synaptosomes (crude P2 fraction of cerebral cortex)
# Assay type: biochemical, male Wistar rat
# Conditions: rat cerebral cortex synaptosomes; KCl-depolarized, corrected for basal uptake; 15 s uptake at 37° C.; estimated from dose response curves
# Excerpt: The pharmacological properties of the compounds of the invention can be illustrated by determining their capability to inhibit calcium uptake into brain synaptosomes. Depolarization of neuronal membranes leads to an opening of socalled "voltage operated calcium channels" (VOC) in the membranes which allows a massive influx of calcium from the extracellular space. A crude synaptosomal preparation (socalled P2 fraction) contains small vesicles surrounded by neuronal membrane and it is possible in such a preparation to study a depolarization-induced opening of VOC. In the present model ^45 Ca influx is induced in the synaptosomes by depolarization with elevated potassium concentrations, and the effect of test substances on this stimulated uptake is studied ([…]. and Blaustein, M. P., Mol. […] A male Wistar rat is decapitated and the cerebral cortex removed and homogenized in 10 ml. of ice-cold 0.32M sucrose using a glass homogenizer with a teflon pestle. All subsequent steps for isolation of synaptosomes are done at 0°-4° C. […] This pellet (P2) is resuspended in 0.32M sucrose (5 ml per g of original tissue) with a teflon pestle. […] The tubes are pre-incubated for 30 min on ice and then for 6 min at 37° C. in a water bath. […] The incubation is continued for 15 s. […] The amount of radioactivity on the filter disc is determined by liquid scintillation spectrometry. Test substances are dissolved in 10 ml of 48% ethanol at a concentration of 0.44 mg/ml. Dilution are made in 48% ethanol to give final concentrations of 0.1, 0.3, 1, 3 and 10 μg/ml. Experiments are performed in triplicate. […] The IC50 value is estimated from dose response curves.
row,Compound,IC50 (concentration of test substance which inhibits 50% of stimulated uptake of 45Ca) [µg/mL]
1,"CCCCN1CC[C@@H](c2ccc(N(C)C)cc2)[C@H](COc2ccc(C(F)(F)F)cc2)C1.Cl (racemic) [Compound 11, (+-)trans-1-butyl-4-(4-dimethylaminophenyl)-3-(4-trifluoromethylphenoxymethyl)piperidine, hydrochloride]",4.9
2,"CCCCN1CC[C@@H](c2ccc(N(C)C)cc2)[C@H](COc2ccc3c(c2)OCO3)C1.Cl (racemic) [Compound 15, (+-)trans-1-butyl-4-(4-dimethylaminophenyl)-3-(3,4-methylenedioxyphenoxymethyl)piperidine, hydrochloride]",5.0
3,"CCCCN1CC[C@@H](c2ccc(N(C)C)cc2)[C@H](COc2cccc(C(F)(F)F)c2)C1.Cl (racemic) [Compound 17, (+-)trans-1-butyl-4-(4-dimethylaminophenyl)-3-(3-trifluoromethylphenoxymethyl)piperidine, hydrochloride]",7.4
4,"CCCCN1CC[C@@H](c2ccc(N(C)C)cc2)[C@H](COc2ccc(Cl)cc2)C1 (relative stereo) [Compound 51, (+-) trans 1-butyl-3-(4-chlorophenoxymethyl)-4-(4-dimethylaminophenyl) piperidine, hydrochloride]",3.8
5,"CCCCN1CC[C@@H](c2ccc(N(C)C)cc2)[C@H](COc2ccc(Cl)c(Cl)c2)C1 (relative stereo) [Compound 52, (+-) trans 1-butyl-3-(3,4-dichlorophenoxymethyl) 4-(4-dimethylaminophenyl)piperidine, HCl]",2.8
6,"CCCCN1CC[C@@H](c2ccc(N(C)C)cc2)[C@H](COc2ccc([N+](=O)[O-])cc2)C1 (relative stereo) [Compound 57, (+-) trans 1-butyl-4-(4-dimethylaminophenyl)-3-(4-nitrophenoxymethyl) piperidine, HCl]",3.2
7,"O=[N+]([O-])c1ccc([C@@H]2CCNC[C@H]2COc2cccc(C(F)(F)F)c2)cc1 (single isomer, unassigned) [Compound 9, (31)trans-4-(4-nitrophenyl)-3-(3-trifluoromethylphenoxymethyl)piperidine, hydrochloride]",7.2
8,"CCCCCN1CC[C@@H](c2ccc(N)cc2)[C@H](COc2ccc3c(c2)OCO3)C1.Cl (single isomer, unassigned) [Compound 10, (+)trans-4-(4-aminophenyl)-3-(3,4-methylenedioxyphenoxymethyl)-1-pentylpiperidine, hydrochloride]",8.9
9,"CCCCCN1CC[C@@H](c2ccc(F)cc2)[C@H](COCc2ccc(C(F)(F)F)cc2)C1 (single isomer, unassigned) [Compound 36, (-) trans-4-(4-fluorophenyl)-1-pentyl-3-(4-trifluoromethylbenzyloxymethyl)-piperidine, HCl]",6.4
10,"CCCCCN1CC[C@@H](c2ccc(F)cc2)[C@H](COCc2cccc(C(F)(F)F)c2)C1 (single isomer, unassigned) [Compound 60, (-)trans-4-(4-fluorophenyl)-1-pentyl-3-(3-trifluoromethylbenzyloxymethyl)-piperidine, HCl]",5.5
11,"CCCCN1CCC(c2ccccc2)C(CNCc2ccc(OC)cc2)C1 (centres unmarked) [Compound 20, 1-butyl-3-(4-methoxybenzylaminomethyl)-4-phenylpiperidine, HCl]",2.7
12,"CCCCN1CCC(c2ccccc2)C(CNc2ccc(C(F)(F)F)cc2)C1 (centres unmarked) [Compound 22, 1-butyl-3-(4-trifluoromethylphenylaminomethyl)-4-phenylpiperidine, HCl]",4

# Same assay, conditions: rat cerebral cortex synaptosomes; KCl-depolarized, corrected for basal uptake; 15 s uptake at 37° C.; estimated from dose response curves; dihydrochloride
row,Compound,IC50 (concentration of test substance which inhibits 50% of stimulated uptake of 45Ca) [µg/mL]
1,"CCCCN1CC[C@@H](c2ccc(N(C)C)cc2)[C@H](COc2ccc(C(F)(F)F)cc2)C1.Cl.Cl (single isomer, unassigned) [Compound 64, (+)-trans-1-butyl-4-(4-dimethylaminophenyl)-3-(4-trifluoromethylphenoxymethyl)piperidine dihydrochloride]",4.2
2,"CCCCN1CC[C@@H](c2ccc(N(C)C)cc2)[C@H](COc2ccc(C(F)(F)F)cc2)C1.Cl.Cl (single isomer, unassigned) [Compound 65, (-)-trans-1-butyl-4-(4-dimethylaminophenyl)-3-(4-trifluoromethylphenoxymethyl)piperidine dihydrochloride]",6.5
